ChEMBL document CHEMBL4406911, “Discovery of Amino-cyclobutarene-derived Indoleamine-2,3-dioxygenase 1 (IDO1) Inhibitors for Cancer Immunotherapy” (ACS Med Chem Lett, 2019)
pEC50, pIC50: −log10 of the molar value.

Legend:
[1] = molecular target: T1, Indoleamine 2,3-dioxygenase 1 (Homo sapiens, UniProt P14902); assay: Inhibition of IDO1 in human HeLa cells stimulated with IFNgamma using L-tryptophan as substrate incubated for 48 hrs by fluorescence based assay; type: cell-based
[2] = molecular target: T1, Indoleamine 2,3-dioxygenase 1; assay: Inhibition of recombinant His-tagged IDO1 (unknown origin) expressed in Escherichia coli preincubated for 30 mins followed by substrate tryptophan addition and measured after 60 mins by fluorescence based assay
[3] = Intrinsic clearance in rat; type: ADME
[4] = Total clearance in rat; type: ADME; details: in vivo
[5] = Clearance in human Hepatocyte; type: ADME, cell-based; details: hepatocytes, read-out: CLH
[6] = MRT in rat; type: ADME; details: in vivo
[7] = Lipophilicity, log D of compound at pH 7 by HPLC analysis; type: physicochemical; details: buffer
[8] = Thermal stability of compound assessed as parent compound remaining measured after 3 hrs; type: physicochemical; details: read-out: Stability
[9] = Oral bioavailability in rat; type: ADME, organism-based; details: in vivo
[10] = Oral bioavailability in dog; type: ADME, organism-based, Canis lupus familiaris; details: in vivo
CYP450 = CYP450 (Homo sapiens, UniProt P04798+P05177+P05181+P08684+P10632+P10635+P11509+P11712+P13584+P20813+P20815+P20853+P24462+P24903+P33260+P33261+P51589+P78329+P98187+Q02928+Q08477+Q16678+Q16696+Q5TCH4+Q6VVX0+Q7Z449+Q8TAV3+Q96SQ9+Q9HB55); assay: Inhibition of CYP450 (unknown origin); type: ADME, protein assay
[11] = Unbound clearance in dog; type: ADME, Canis lupus familiaris; details: in vivo
[12] = Chemical stability of compound in AIBN assessed as parent compound remaining measured after 24 hrs; type: physicochemical; details: read-out: Stability
[13] = molecular target: T2, Nuclear receptor subfamily 1 group I member 2 (Homo sapiens, UniProt O75469); assay: Activation of PXR (unknown origin)
T2 sequence (O75469 whole entry): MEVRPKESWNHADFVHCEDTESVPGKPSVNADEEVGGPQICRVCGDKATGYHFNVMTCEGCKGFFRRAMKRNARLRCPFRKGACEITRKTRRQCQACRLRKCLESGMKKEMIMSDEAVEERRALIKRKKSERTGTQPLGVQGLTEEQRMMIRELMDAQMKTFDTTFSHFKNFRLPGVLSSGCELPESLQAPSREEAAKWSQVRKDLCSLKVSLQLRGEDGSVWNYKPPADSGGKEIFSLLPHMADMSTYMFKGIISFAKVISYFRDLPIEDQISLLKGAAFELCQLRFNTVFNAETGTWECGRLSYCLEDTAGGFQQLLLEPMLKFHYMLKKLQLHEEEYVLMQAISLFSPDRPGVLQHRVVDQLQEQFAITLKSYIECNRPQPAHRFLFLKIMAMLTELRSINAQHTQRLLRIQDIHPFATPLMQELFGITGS

[14] = molecular target: Tryptophan 2,3-dioxygenase (Homo sapiens, UniProt P48775); assay: Inhibition of TDO in human SW480 cells incubated for 48 hrs using L-tryptophan as substrate by fluorescence based assay; type: cell-based
Tryptophan 2,3-dioxygenase, sequence (P48775 whole entry): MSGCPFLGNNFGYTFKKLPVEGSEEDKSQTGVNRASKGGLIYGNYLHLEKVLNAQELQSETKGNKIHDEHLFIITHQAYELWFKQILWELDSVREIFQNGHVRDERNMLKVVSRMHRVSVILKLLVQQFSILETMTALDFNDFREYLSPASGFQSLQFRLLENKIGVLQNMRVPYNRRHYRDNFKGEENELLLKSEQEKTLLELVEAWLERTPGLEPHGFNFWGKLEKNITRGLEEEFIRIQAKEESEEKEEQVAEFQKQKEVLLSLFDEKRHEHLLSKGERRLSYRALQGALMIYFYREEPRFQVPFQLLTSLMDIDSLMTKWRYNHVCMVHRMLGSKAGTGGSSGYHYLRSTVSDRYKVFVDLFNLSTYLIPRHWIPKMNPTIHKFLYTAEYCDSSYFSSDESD

[15] = Chemical stability of compound in H2O2 assessed as parent compound remaining measured after 24 hrs; type: physicochemical; details: read-out: Stability
[16] = Half life in dog; type: ADME, Canis lupus familiaris; details: in vivo
[17] = molecular target: Indoleamine 2,3-dioxygenase 1 (Rattus norvegicus, UniProt Q9ERD9); assay: Inhibition of rat IDO1 preincubated for 30 mins followed by substrate tryptophan addition and measured after 60 mins by fluorescence based assay
Indoleamine 2,3-dioxygenase 1 (Rattus norvegicus, UniProt Q9ERD9), sequence (Q9ERD9 whole entry): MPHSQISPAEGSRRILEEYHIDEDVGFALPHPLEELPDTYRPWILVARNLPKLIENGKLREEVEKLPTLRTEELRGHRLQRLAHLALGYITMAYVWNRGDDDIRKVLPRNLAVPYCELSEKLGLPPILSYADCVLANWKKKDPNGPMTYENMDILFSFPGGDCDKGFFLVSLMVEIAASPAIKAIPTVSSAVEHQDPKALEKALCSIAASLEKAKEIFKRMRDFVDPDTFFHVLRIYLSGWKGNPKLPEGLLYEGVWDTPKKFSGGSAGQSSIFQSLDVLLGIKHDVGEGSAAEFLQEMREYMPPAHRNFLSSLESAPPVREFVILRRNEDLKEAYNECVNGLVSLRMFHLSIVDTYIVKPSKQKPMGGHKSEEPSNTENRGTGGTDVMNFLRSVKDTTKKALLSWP

EMT6 [18] = assay: Antitumor activity against mouse EMT6 cells xenografted in BALB/c mouse assessed as reduction in tumor volume at 100 mg/kg, po bid and measured for weekly twice relative to control; type: functional; design: scale not given: the % may be the effect or the level left
[19] = Chemical stability of compound in 0.01 N HCl assessed as parent compound remaining measured after 3 hrs; type: physicochemical; details: read-out: Stability
[20] = Apparent permeability of compound; type: ADME; details: not told
[21] = Chemical stability of compound in 0.01 N NaOH assessed as parent compound remaining measured after 3 hrs; type: physicochemical; details: read-out: Stability
[22] = Toxicity in rat assessed as adverse event; details: in vivo
[23] = Chemical stability of compound in 0.1 N HCl assessed as parent compound remaining measured after 24 hrs; type: physicochemical; details: read-out: Stability
[24] = molecular target: Indoleamine 2,3-dioxygenase 1 (Mus musculus, UniProt P28776); assay: Inhibition of mouse IDO1 preincubated for 30 mins followed by substrate tryptophan addition and measured after 60 mins by fluorescence based assay
Indoleamine 2,3-dioxygenase 1 (Mus musculus, UniProt P28776), sequence (P28776 whole entry): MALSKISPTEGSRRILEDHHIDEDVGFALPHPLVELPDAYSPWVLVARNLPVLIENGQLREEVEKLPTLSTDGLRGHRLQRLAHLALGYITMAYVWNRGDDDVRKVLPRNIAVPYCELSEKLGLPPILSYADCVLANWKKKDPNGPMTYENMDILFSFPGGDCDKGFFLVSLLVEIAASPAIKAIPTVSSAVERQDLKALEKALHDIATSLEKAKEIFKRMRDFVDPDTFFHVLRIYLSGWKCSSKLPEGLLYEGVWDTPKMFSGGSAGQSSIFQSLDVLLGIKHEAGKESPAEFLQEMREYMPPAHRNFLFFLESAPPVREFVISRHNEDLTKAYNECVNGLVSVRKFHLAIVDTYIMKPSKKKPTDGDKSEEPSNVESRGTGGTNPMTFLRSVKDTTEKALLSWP

[25] = Chemical stability of compound in 0.1 N NaOH assessed as parent compound remaining measured after 24 hrs; type: physicochemical; details: read-out: Stability
[26] = Unbound clearance in rat; type: ADME; details: in vivo
EMT6 [27] = assay: Antitumor activity against mouse EMT6 cells xenografted in BALB/c mouse assessed as reduction in tumor volume at 100 mg/kg, po bid in presence of anti-PD1 at 5 mg/kg, […] and measured for weekly twice relative to control; type: functional; design: scale not given: the % may be the effect or the level left
[28] = Clearance in dog; type: ADME, Canis lupus familiaris; details: in vivo

T1 sequence (P14902 whole entry): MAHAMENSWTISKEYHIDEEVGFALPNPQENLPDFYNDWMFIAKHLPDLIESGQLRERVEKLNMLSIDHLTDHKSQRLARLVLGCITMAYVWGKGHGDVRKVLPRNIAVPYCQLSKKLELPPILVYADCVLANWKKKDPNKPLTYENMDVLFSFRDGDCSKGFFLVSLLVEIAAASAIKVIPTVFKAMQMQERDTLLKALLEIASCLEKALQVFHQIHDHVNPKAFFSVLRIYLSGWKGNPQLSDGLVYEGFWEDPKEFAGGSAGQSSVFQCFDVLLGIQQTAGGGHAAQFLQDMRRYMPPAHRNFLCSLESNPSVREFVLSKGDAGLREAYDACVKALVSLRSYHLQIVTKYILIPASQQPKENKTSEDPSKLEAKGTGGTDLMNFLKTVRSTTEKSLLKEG

Nc1nonc1/C(=N/O)NC1Cc2cc(F)ccc21 (stereo not given)
pIC50 [1]: 6.82 | pIC50 [2]: 6.13

Nc1nonc1/C(=N/O)NC1Cc2ccccc2C1
pIC50 [2]: 4.36

NC(=O)CNc1nonc1/C(=N/O)N[C@H]1Cc2ccc(F)cc21
CLint scaled [3]: 499 mL/min/kg | clearance [4]: 17 mL/min/kg | CLint scaled [5]: 523 mL/min/kg | MRT [6]: 1.7 h

O=C(CSc1nonc1/C(=N/O)N[C@H]1Cc2ccc(F)cc21)NCCO
CLint scaled [3]: 2500 mL/min/kg | clearance [4]: 42 mL/min/kg | CLint scaled [5]: 108 mL/min/kg | MRT [6]: 0.8 h | logD [7]: 2

Nc1nonc1/C(=N/O)N[C@H]1Cc2ccc(F)cc21
CLint scaled [3]: 7380 mL/min/kg | clearance [4]: 60 mL/min/kg | MRT [6]: 0.4 h | logD [7]: 2.7

Nc1nonc1/C(=N/O)NC1CCCc2ccccc21 (stereo not given)
pIC50 [2]: 5.56

O=C(CNc1nonc1/C(=N/O)N[C@H]1Cc2ccc(F)cc21)NCCO
remaining at 3 h [8]: 88.4% | bioavailability [9]: 63% | bioavailability [10]: 67% | CLint scaled [3]: 112 mL/min/kg | pIC50 (CYP450): < 4.30 | CL free [11]: 88 mL/min/kg | clearance [4]: 15 mL/min/kg | remaining at 24 h [12]: 77.1% | pEC50 [13]: < 4.52 | pIC50 [14]: < 5.00 | remaining at 24 h [15]: 97% | half-life [16]: 6 h | pIC50 [17]: 7.23 | Activity (EMT6 [18]): 15% | remaining at 3 h [19]: 98.1% | Papp [20]: 25 ×10⁻⁶ cm/s | remaining at 3 h [21]: 97.4% | Activity [22]: Non-Toxic | remaining at 24 h [23]: 96.2% | CLint scaled [5]: 48 mL/min/kg | pIC50 [24]: 7.55 | remaining at 24 h [25]: 81.5% | MRT [6]: 2.9 h | CL free [26]: 319 mL/min/kg | Activity (EMT6 [27]): 79% | logD [7]: 1.9 to 2 | clearance [28]: 6 mL/min/kg

NS(=O)(=O)NCCNc1nonc1/C(=N/O)N[C@H]1Cc2ccc(F)cc21
CLint scaled [3]: 463 mL/min/kg | clearance [4]: 12 mL/min/kg | CLint scaled [5]: 462 mL/min/kg | MRT [6]: 2 h | logD [7]: 2.4

NS(=O)(=O)NCCSc1nonc1/C(=N/O)N[C@H]1Cc2ccc(F)cc21
CLint scaled [3]: 977 mL/min/kg | clearance [4]: 14 mL/min/kg | CLint scaled [5]: 616 mL/min/kg | MRT [6]: 2.5 h | logD [7]: 2.45

Nc1nonc1/C(=N/O)NC1Cc2cc(F)c(F)cc21 (stereo not given)
pIC50 [1]: 7.12 | pIC50 [2]: 6.41

CC(=O)NCCNc1nonc1/C(=N/O)N[C@H]1Cc2ccc(F)cc21
CLint scaled [3]: 3550 mL/min/kg | clearance [4]: 51 mL/min/kg | CLint scaled [5]: 863 mL/min/kg | MRT [6]: 0.4 h

CC(=O)NCCSc1nonc1/C(=N/O)N[C@H]1Cc2ccc(F)cc21
CLint scaled [3]: 1880 mL/min/kg | clearance [4]: 29 mL/min/kg | CLint scaled [5]: 354 mL/min/kg | MRT [6]: 1 h | logD [7]: 2.46
